# Entries after “also recorded” stand apart in the source; their conditions may differ.
# Legend:
# [1] = tested on: ROS 17/2.8 rat osteosarcoma cells; experiment: Intracellular cAMP in ROS 17/2.8 cells; assay type: cell-based
# Procedure: (§1) RCT-1 and RCT-3 are clonal cell lines immortalized by SV-40 large T antigen from cells released from fetal rat calvair by a cmbination collagenase/hyaluronidase digestion. RCT-1 cells, derived from cells released during the first 10 minutes of digestion (fraction I), are cultured in RPMI 1640 medium (BRL) with 10% fetal bovine serum and 0.4 mg/ml G418 (BRL). These cells differentiate and express osteoblastic features upon retinoic acid treatment. RCT-3 cells, immortalized from osteoblast-enriched fraction III cells, are cultured in F-12 medium (BRL) with 5% Fetal bovine serum and 0.4 mg/ml G418. TRAB-11 cells are also immortalized by SV40 large T antigen from adult rat tibia and are cultured in RPMI 1640 medium with 10% FBS and 0.4 mg/ml G418. ROS 17/2.8 rat osteosarcoma cells are cultured in F-12 containing 5% FBS. Osteoblast-enriched (fraction III) primary fetal rat calvaria cells are obtained by collagenase/hyaluronidase digestion of calvariae of 19 day-old rat fetuses. See Rodan et al., Growth stimulation of rat calvaria osteoblastic cells by acidic FGF, Endocrinology, 121, 1919-1923 (1987), which is incorporated by reference herein in its entirety. Cells are released during 30-50 minutes digestion (fraction III) and are cultured in F-12 medium containing 5% FBS. […]
# RCT-3 cells [2] = experiment: Intracellular cAMP in RCT-3 cells; assay type: cell-based, rat
# Procedure: as §1
# TRAB-11 cells = experiment: Intracellular cAMP in TRAB-11 cells; assay type: cell-based, rat
# Procedure: as §1
# RP-1 periosteal cells = experiment: EP4 and EP2 mRNA expression (Northern blot) in RP-1 periosteal cells; assay type: cell-based, rat; conditions: RP-1 cells
# Procedure: RP-1 periosteal cells are spontaneously immortalized from primary cultures of periosteal cells from tibae of 4-week old Sprague-Dawley rats and are cultured in DMEM (BRL, Gaithersburg, Md.) with 10% fetal bovine serum (JRH Biosciences, Lenexa, Kans.).
# (§2) Total RNA is extracted from the tibial metaphysis or diaphysis and calvaria using a guanidinium isothiocyanate-phenol-chloroform method after pulverizing frozen bone samples by a tissue homogenizer. See P. Chomczynski et al., Single-step method of RNA isolation by acid guanidium thiocyanate-phenol-chloroform extraction., Analyt Biochem, 162, 156-159 (1987), which is incorporated by reference herein in its entirety. RNA samples ([…]) are separated on 0.9% agarose/formaldehyde gels and transferred onto nylon membranes (Boehringer Mannheim, Germany). Membranes are prehybridized in Hybrisol I (Oncor, Gaithersburg, Md.) and 0.5 mg/ml sonicated salmon sperm DNA (Boehringer) at 42° C. for 3 hours and are hybridized at 42° C. with rat EP2 and mouse EP4 cDNA probes labeled with [^32P]dCTP (Amersham, Buckinghamshire, UK) by random priming using the rediprime kit (Amersham). After hybridization, membranes are washed 4 times in 2×SSC+0.1% SDS at room temperature for a total of 1 hour and once with 0.2×SSC+0.1% SDS at 55° C. for 1 hour and then exposed to Kodak XAR 2 film at −70° C. using intensifying screens. After developing the films, bound probes are removed twice with 0.1% SDS at 80° C. and membranes are hybridized with a human GAPDH (Glyceraldehyde 3-Phosphate Dehydrogenase) cDNA probe (purchased from Clontech, Palo Alto, Calif.) for loading control.
# PGE2 enhances its own production via upregulation of cyclooxygenase 2 expression in osteoblasts and in bone tissue thus autoamplifying its own effects. PGE2 also increases the levels of EP4 mRNA. RP-1 cells are immortalized from a primary culture of adult rat tibia periosteum is examined. These cells express osteoblast phenotypic markers upon confluence and form mineralized bone matrix when implanted in nude mice. […]
# RCT-3 cells [3] = experiment: EP4 mRNA expression (Northern blot) in RCT-3 cells; assay type: cell-based, rat
# Procedure: as §1
# [4] = tested on: bone tissue (tibia, calvaria); experiment: EP4 and EP2 mRNA levels in vivo in bone tissue (Northern blot); set-up: species or system rat
# Procedure: (§3) For mRNA localization experiments, 5-week old Sprague-Dawley rats (Charles River) are euthanized by CO2, their tibiae and calvariae are excised, cleaned of soft tissues and frozen immediately in liquid nitrogen. For EP4 regulation experiments, 6-week old rats are given a single injection of either vehicle (7% ethanol in sterile water) or an anabolic dose of PGE2 (Cayman Chemical, Ann Arbor, Mich.), 3-6 mg/kg in the same vehicle) intraperitoneally. Animals are euthanized at several time points post-injection and their tibiae and calvariae, as well as samples from lung and kidney tissues are frozen in liquid nitrogen.
# as §2, with “control. […]” for “control.”
# bone marrow cells = experiment: In situ hybridization of EP4 mRNA in bone tissue; assay type: in vivo, rat; conditions: rats, single anabolic dose
# Procedure: as §3
# Frozen tibiae are sectioned coronally at […] thickness and sections are mounted on charged slides (Probe On Plus, Fisher Scientific, Springfield, N.J.) and are kept at −70° C. until hybridization. cRNA probes are labeled with ^35S-UTPgS (ICN, Costa Mesa, Calif.) using a Riboprobe II kit (Promega Madison, Wis.). Hybridization is performed overnight at 50° C. […]
# In situ hybridization is used in order to localize cells expressing EP4 in bone. In control experiment (vehicle-injected) rats, low expression of EP4 is detected in bone marrow cells. […]
# [5] = five-week-old male rats, injected 3-6 mg/Kg
structure (smiles),measurement,setting,value
CCCCC[C@H](O)/C=C/[C@H]1[C@H](O)CC(=O)[C@@H]1C/C=C\CCCC(=O)O [PGE2],effect on intracellular cAMP,[1],no effect
same,effect on intracellular cAMP,RCT-3 cells [2],markedly induced
same,effect on intracellular cAMP,TRAB-11 cells,markedly induced
same,EP2 mRNA,RP-1 periosteal cells,not expressed; also recorded: does not induce
same,EP4 mRNA levels,RP-1 periosteal cells; 10^-6 M,rapidly increases
same,time of peak EP4 mRNA levels after treatment,RP-1 periosteal cells; 10^-6 M,2 h
same,EP4 mRNA levels,RCT-3 cells [3],no effect
same,EP4 mRNA levels in the tibial diaphysis,[4]; [5],rapidly increased
same,time of peak EP4 mRNA levels in the tibial diaphysis after injection,[4]; [5],2 h
same,EP2 mRNA in bone tissue,[4]; rats,does not induce
same,expression of EP4 in bone marrow cells,bone marrow cells,increased

# Reference: patent publication US7238710B2, “EP4 receptor agonist, compositions and methods thereof” (Merck Frosst Canada, Ltd., priority 2003, dated 2007)
